Measured values published in patent US12558317B2, “Compositions and methods for treating disorders ameliorated by muscarinic receptor activation” (Karuna Therapeutics, Inc., priority 2018, dated 2026).

Tests used:
[1] = system: normal healthy volunteers; assay: KAR-001 Phase I study: safety and tolerability, cholinergic adverse events; assay type: in vivo, human
[2] = KAR-001 Phase I study: xanomeline pharmacokinetics; conditions: human, in vivo, 225 mg daily; for AUC / Cmax: oral, geometric mean; for AUC: Xanomeline AUC0-tau; for Cmax: Xanomeline Cmax
Experimental: A Phase I, double-blind, randomized multiple-dose pilot study was conducted with xanomeline administered alone compared to xanomeline administered with trospium chloride in normal healthy volunteers. […]

[3] = 26-week study of Alzheimer's disease; cited from earlier work
[4] = Mutagenic potential
[5] = KAR-001 Safety Population, cholinergic TEAE, number of individual occurrences
[6] = KAR-001 Safety Population, cholinergic TEAE, number of subjects
[7] = KAR-001 Safety Population, cholinergic TEAE, percentage of subjects in arm

CCCCCCOc1nsnc1C1=CCCN(C)C1 [xanomeline]
AE leading to discontinuation (D/C), # events ([1]; KAR-001): 2
AE leading to discontinuation (D/C), % ([1]; KAR-001): 6.1%
Any SAE, % ([1]; KAR-001): (0.0) %
Any clinically significant TEAE, # events ([1]; KAR-001): 5
Any clinically significant TEAE, % ([1]; KAR-001): 15.2%
Any study drug-related TEAE, # events ([1]; KAR-001): 92
Any study drug-related TEAE, % ([1]; KAR-001): 69.7%
Diarrhea, # of events ([1]; KAR-001): 8
Diarrhea, % of subjects ([1]; KAR-001): 21.2%
Diarrhea, n subjects ([1]; KAR-001): 7
Max Severity of TEAE: Mild, % ([1]; KAR-001): (66.7) N/A %
Max Severity of TEAE: Moderate, % ([1]; KAR-001): (15.2) N/A %
Max Severity of TEAE: Severe, % ([1]; KAR-001): (0.0) %
Max severity of study drug-related TEAE: Mild, % ([1]; KAR-001): (57/6) N/A
Max severity of study drug-related TEAE: Moderate, % ([1]; KAR-001): (12.1) N/A %
Max severity of study drug-related TEAE: Severe, % ([1]; KAR-001): (0.0) N/A %
Nausea, # of events ([1]; KAR-001): 11
Nausea, % of subjects ([1]; KAR-001): 24.2%
Nausea, n subjects ([1]; KAR-001): 8
Salivation (salivary hypersecretion), % of subjects ([1]; KAR-001): 36.4%
Salivation, # of events ([1]; KAR-001): 16
Salivation, n subjects ([1]; KAR-001): 12
Study drug related AE leading to D/C, # events ([1]; KAR-001): 1
Study drug related AE leading to D/C, % ([1]; KAR-001): 3.0%
Subjects with any TEAE, # events ([1]; KAR-001): 108
Subjects with any TEAE, % ([1]; KAR-001): 81.8%
Sweating (hyperhidrosis), % of subjects ([1]; KAR-001): 48.5%
Sweating, # of events ([1]; KAR-001): 24
Sweating, n subjects ([1]; KAR-001): 16
Vomiting, # of events ([1]; KAR-001): 5
Vomiting, % of subjects ([1]; KAR-001): 15.2%
Vomiting, n subjects ([1]; KAR-001): 5
Cholinergic adverse events: Any TEAEs, # of events ([1]; KAR-001, healthy volunteers): 64
Cholinergic adverse events: Any TEAEs, n subjects ([1]; KAR-001, healthy volunteers): 21
Cholinergic adverse events: Any TEAEs, % of subjects ([1]; KAR-001, healthy volunteers, listed as Xanomeline + placebo): 63.6%
Cholinergic adverse events: Any TEAEs, % of subjects ([1]; KAR-001, healthy volunteers, listed as xanomeline+placebo): 63%
Diarrhea, # occurrences [1, 5]: 8
Gastrointestinal disorders, # occurrences [1, 5]: 40
Hyperhidrosis, # occurrences [1, 5]: 24
Nausea, # occurrences [1, 5]: 11
Salivary hypersecretion, # occurrences [1, 5]: 16
Skin and subcutaneous tissue disorders, # occurrences [1, 5]: 24
Vomiting, # occurrences [1, 5]: 5
Diarrhea, n subjects [1, 6]: 7
Gastrointestinal disorders, n subjects [1, 6]: 18
Hyperhidrosis, n subjects [1, 6]: 16
Nausea, n subjects [1, 6]: 8
Salivary hypersecretion, n subjects [1, 6]: 12
Skin and subcutaneous tissue disorders, n subjects [1, 6]: 16
Vomiting, n subjects [1, 6]: 5
Diarrhea, % of subjects [1, 7]: 20.6%
Gastrointestinal disorders, % of subjects [1, 7]: 52.9%
Hyperhidrosis, % of subjects [1, 7]: 47.1%
Nausea, % of subjects [1, 7]: 23.5%
Salivary hypersecretion, % of subjects [1, 7]: 35.3%
Skin and subcutaneous tissue disorders, % of subjects [1, 7]: 47.1%
Vomiting, % of subjects [1, 7]: 14.7%
Subjects with any TEAEs (cholinergic), # occurrences ([1]; KAR-001 Safety Population, number of individual occurrences): 64
Subjects with any TEAEs (cholinergic), n subjects ([1]; KAR-001 Safety Population, number of subjects): 21
Subjects with any TEAEs (cholinergic), % of subjects ([1]; KAR-001 Safety Population, percentage of subjects in arm): 61.8%
Tmax ([2]; KAR-001 Day 3, median): 2 h
AUC ([2]; KAR-001 Day 3): 12.6 ng·h/mL
AUC ([2]; KAR-001 Day 9): 24.8 ng·h/mL
Cmax ([2]; KAR-001 Day 3): 2.95 ng/mL
Cmax ([2]; KAR-001 Day 9): 4.57 ng/mL
dropout rate [3]: 56%

CCCCCCOc1nsnc1-c1ccc[n+](C)c1 [Compound V]
mutagenic potential [4]: negative
